pIC50: −log10 of the molar value.
Target: Serine/threonine-protein kinase 10 (Homo sapiens, UniProt O94804)
Experiment: Inhibition of STK10 (unknown origin) expressed in Sf9 cells assessed as transfer of radiolabelled phosphate group from ATP by reaction biology method

Serine/threonine-protein kinase 10, sequence (O94804 whole entry): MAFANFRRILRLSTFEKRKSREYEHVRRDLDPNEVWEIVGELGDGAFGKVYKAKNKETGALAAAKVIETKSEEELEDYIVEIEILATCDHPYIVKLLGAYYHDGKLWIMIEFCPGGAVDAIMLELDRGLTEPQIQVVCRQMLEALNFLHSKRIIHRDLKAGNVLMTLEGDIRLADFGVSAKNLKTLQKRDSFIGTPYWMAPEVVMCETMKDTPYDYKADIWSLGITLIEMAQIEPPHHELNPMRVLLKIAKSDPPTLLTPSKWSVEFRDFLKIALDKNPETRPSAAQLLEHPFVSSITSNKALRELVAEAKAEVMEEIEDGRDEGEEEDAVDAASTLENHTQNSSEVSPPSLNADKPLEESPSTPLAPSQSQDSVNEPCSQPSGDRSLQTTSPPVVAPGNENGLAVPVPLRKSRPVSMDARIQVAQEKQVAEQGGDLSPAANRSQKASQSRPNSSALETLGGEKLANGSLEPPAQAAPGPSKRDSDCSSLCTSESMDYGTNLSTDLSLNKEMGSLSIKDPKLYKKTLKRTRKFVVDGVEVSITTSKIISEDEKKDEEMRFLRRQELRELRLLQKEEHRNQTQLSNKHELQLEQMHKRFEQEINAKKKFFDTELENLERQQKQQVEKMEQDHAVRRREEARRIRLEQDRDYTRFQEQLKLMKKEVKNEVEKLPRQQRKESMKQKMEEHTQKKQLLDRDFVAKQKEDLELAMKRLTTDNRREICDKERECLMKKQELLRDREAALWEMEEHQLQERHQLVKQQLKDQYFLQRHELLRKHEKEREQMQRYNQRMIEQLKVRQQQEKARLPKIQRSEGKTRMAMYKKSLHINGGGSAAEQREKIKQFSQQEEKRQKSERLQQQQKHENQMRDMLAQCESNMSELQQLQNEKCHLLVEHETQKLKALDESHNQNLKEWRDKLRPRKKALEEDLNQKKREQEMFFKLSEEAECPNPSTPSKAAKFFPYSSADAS

**Q.** How did the pIC50 turn out when `Cn1cc(C2=C(c3cn(CCCSC(=N)N)c4ccccc34)C(=O)NC2=O)c2ccccc21` [BISINDOLYLMALEIMIDE IX] was run?
**A.** Its pIC50 is 7.00.

— ChEMBL document CHEMBL4837247, “Discovery of a Potent Dual SLK/STK10 Inhibitor Based on a Maleimide Scaffold” (J Med Chem, 2021)
